Data from patent US9079913B2, “Spiro-oxindole MDM2 antagonists” (The Regents of the University of Michigan, priority 2009, dated 2015).
Several values for one entry are separate records, joined by “and”; a condition that tells them apart may be missing. Equal values may be shown once.

Key:
[1] = Metabolites in rat plasma; assay type: in vivo; details: rats, MI-219 i.v. 5 mg/kg
Procedure: Plasma was harvested by centrifuging the blood at 13000 rpm for 5 min at 4° C. and stored frozen at −80±10° C. until analysis.
Based on the similarities and difference among their mass spectra, the possible fragmentation pathways of protonated MI-219 and several lead compounds were proposed. Three characteristic product ions were selected to generate 240 ion channels for MRM screening by using Metabolite ID software (Applied Biosystems), including 40 common biotransformation processes. To search all the metabolites, two other scan modes, EMS full scan and precursor scan were also conducted. Only the components detected in the sample and absent in all the control samples were regarded as possible metabolites. To identify the possible metabolites, both the sample and controls were injected on the LC-MS for EPI and MS^3 scans to obtain their MS^2 and MS^3 spectra.

[2] = Pharmacokinetic studies in ICR mice; assay type: in vivo; parameters: Measured concentrations in the plasma samples: unit not given here; details: for Measured concentrations in the plasma samples: single i.v. dose 10 mg/kg; for Plasma Concentrations: single p.o dose 50 mg/kg
SJSA-1 xenograft tumors [3] = test: In vivo efficacy, SJSA-1 xenograft model (tumor volume); parameters: species or system C.B-17 SCID mice; details: PO 300 mg/kg
[4] = Pharmacokinetic studies in Cynomolgus monkeys; assay type: in vivo; details: for AUC(0-t): animals and MEAN
[5] = In vitro microsomal stability, rat; assay type: in vitro ADME; details: for Microsomal stability, % remaining: Rat microsomes
[6] = In vitro microsomal stability, dog; assay type: in vitro ADME; details: for Microsomal stability, % remaining: Dog microsomes
SJSA-1 xenograft tumors [7] = details: mice bearing SJSA-1 xenograft, oral 200-300 mg/kg daily or twice a day, 2 weeks; cited from earlier work
[8] = In vitro microsomal stability, human; assay type: in vitro ADME; details: for Microsomal stability, % remaining: Human microsomes
[9] = male Cynomolgus monkeys, IV (10 mg/kg)
[10] = male Cynomolgus monkeys, IV (10 mg/kg), mean
[11] = male Cynomolgus monkeys, Oral (50 mg/kg)
[12] = male Cynomolgus monkeys, Oral (50 mg/kg), mean

## MI-219
[1]
  elimination rate from rat plasma (in words): similar
[2]; 50 mg/kg oral dosing
  AUC: 8469 ± 2381 ng·h/mL
[2]; p.o. 50 mg/kg
  AUC 0→9 h: 26839 ng·h/mL and 16158 ng·h/mL and 14622 ng·h/mL
  F: 76.7% and 46.2% and 41.8% and 54.9 ± 19.0%
  Kel: 0.37 and 0.69
  MRT: 2.5813 h and 2.043 h and 2.2585 h
  Tmax: 2 h
[2]; p.o. 50 mg/kg, groups and Mean ± SD
  Cmax: 10399 ng/mL and 9201 ng/mL and 9082 ng/mL and 9561 ± 728 ng/mL
[2]; p.o. 50 mg/kg, mean
  AUC 0→9 h: 19206 ± 6655 ng·h/mL
  Kel: 0.47 ± 0.19
  MRT: 2.29 ± 0.27 h
[2]; 5 min, groups and Mean ± SD, mean
  Measured concentrations in the plasma samples: 18041 ± 3799
[2]; 15 min, mean
  Measured concentrations in the plasma samples: 5823 ± 701
  Plasma Concentrations: 2043 ± 772 ng/mL
[2]; 30 min, mean
  Measured concentrations in the plasma samples: 3570 ± 871
[2]; 45 min, mean
  Measured concentrations in the plasma samples: 1731 ± 429
[2]; 1 h, mean
  Measured concentrations in the plasma samples: 1223 ± 141
[2]; 24 h
  Measured concentrations in the plasma samples: BLQ
  Plasma Concentrations: Beyond
[2]; 15 min
  Plasma Concentrations: 2927 ng/mL and 1700 ng/mL and 1503 ng/mL
[2]; 2 h
  Plasma Concentrations: 10399 ng/mL and 9201 ng/mL and 5808 ng/mL
[2]; 2 h, mean
  Plasma Concentrations: 8469 ± 2381 ng/mL
[2]; 5 h
  Plasma Concentrations: 522 ng/mL and 277 ng/mL and 334 ng/mL
[2]; 5 h, mean
  Plasma Concentrations: 378 ± 128 ng/mL
SJSA-1 xenograft tumors [3]; Exp. No. 1, SJSA-1 xenograft, D27
  % Tumor Growth Inhib. T/C Control 750 mm^3 D27: 44.3%
SJSA-1 xenograft tumors [3]; Exp. No. 2, SJSA-1 xenograft, D24
  % Tumor Growth Inhib. T/C Control 750 mm^3 D24: 30.1%
SJSA-1 xenograft tumors [3]; Exp. No. 3, SJSA-1 xenograft, D29
  % Tumor Growth Inhib. T/C Control 750 mm^3 D29: 15.8%
[4]; Cynomolgus Monkeys
  oral bioavailability in monkeys (in words): orally bioavailable
[4]; male Cynomolgus monkeys, IV 10 mg/kg, time point 0.083, animals and Mean
  Plasma Concentration: 15043.60 ng/mL and 18669.25 ng/mL
[4]; male Cynomolgus monkeys, IV 10 mg/kg, time point 0.083, animals and Mean, mean
  Plasma Concentration: 16856.43 ng/mL
[4]; male Cynomolgus monkeys, IV 10 mg/kg, time point 0.1
  Plasma Concentration: 18416.30 ng/mL
[4]; male Cynomolgus monkeys, IV 10 mg/kg, time point 0.25
  Plasma Concentration: 4144.21 ng/mL and 4818.06 ng/mL and 6877.15 ng/mL
[4]; male Cynomolgus monkeys, IV 10 mg/kg, time point 0.25, mean
  Plasma Concentration: 5279.81 ng/mL
[4]; male Cynomolgus monkeys, IV 10 mg/kg, time point 0.5
  Plasma Concentration: 2188.67 ng/mL and 3577.55 ng/mL and 3536.46 ng/mL
[4]; male Cynomolgus monkeys, IV 10 mg/kg, time point 0.5, mean
  Plasma Concentration: 3100.89 ng/mL
[4]; male Cynomolgus monkeys, IV 10 mg/kg, time point 1
  Plasma Concentration: 1564.10 ng/mL and 2277.17 ng/mL and 2483.63 ng/mL
[4]; male Cynomolgus monkeys, IV 10 mg/kg, time point 1, mean
  Plasma Concentration: 2108.30 ng/mL
[4]; male Cynomolgus monkeys, IV 10 mg/kg, time point 2
  Plasma Concentration: 985.23 ng/mL and 1277.08 ng/mL and 1539.44 ng/mL
[4]; male Cynomolgus monkeys, IV 10 mg/kg, time point 2, mean
  Plasma Concentration: 1267.25 ng/mL
[4]; male Cynomolgus monkeys, IV 10 mg/kg, time point 3
  Plasma Concentration: 1230.40 ng/mL and 691.83 ng/mL and 834.00 ng/mL
[4]; male Cynomolgus monkeys, IV 10 mg/kg, time point 3, mean
  Plasma Concentration: 918.74 ng/mL
[4]; male Cynomolgus monkeys, IV 10 mg/kg, time point 4
  Plasma Concentration: 348.97 ng/mL and 582.63 ng/mL and 562.45 ng/mL
[4]; male Cynomolgus monkeys, IV 10 mg/kg, time point 4, mean
  Plasma Concentration: 498.02 ng/mL
[4]; male Cynomolgus monkeys, IV 10 mg/kg, time point 6
  Plasma Concentration: 246.12 ng/mL and 211.39 ng/mL and 324.99 ng/mL
[4]; male Cynomolgus monkeys, IV 10 mg/kg, time point 6, mean
  Plasma Concentration: 260.83 ng/mL
[4]; male Cynomolgus monkeys, IV 10 mg/kg, time point 8
  Plasma Concentration: 180.91 ng/mL and 115.94 ng/mL and 202.16 ng/mL
[4]; male Cynomolgus monkeys, IV 10 mg/kg, time point 8, mean
  Plasma Concentration: 166.34 ng/mL
[4]; male Cynomolgus monkeys, IV 10 mg/kg, time point 24
  Plasma Concentration: 5.91 ng/mL and 8.00 ng/mL and 8.34 ng/mL
[4]; male Cynomolgus monkeys, IV 10 mg/kg, time point 24, mean
  Plasma Concentration: 7.42 ng/mL
[4]; [9]
  AUC(0-∞): 11647.87 ng·h/mL and 13703.99 ng·h/mL and 10300.28 ng·h/mL
  CLz: 14.3 mL/min/kg and 12.2 mL/min/kg and 16.2 mL/min/kg
  Cmax: 18669.25 ng/mL and 18416.30 ng/mL and 15043.60 ng/mL
  MRT(0-∞): 2.12 h and 2.44 h and 2.68 h
  T1/2: 3.25 h and 3.43 h and 3.38 h
  Vz: 4.03 L/kg and 3.62 L/kg and 4.73 L/kg
  AUC(0-t): 11610.30 ng·h/mL and 13662.84 ng·h/mL and 10271.39 ng·h/mL
[4]; [10]
  AUC(0-t): 11848.18 ng·h/mL
  AUC(0-∞): 11884.05 ng·h/mL
  CLz: 14.2 mL/min/kg
  Cmax: 17376.38 ng/mL
  MRT(0-∞): 2.41 h
  T1/2: 3.35 h
  Vz: 4.12 L/kg
[4]; [11]
  MRT(0-∞): 6.25 h and 6.38 h and 5.57 h
  T1/2: 3.03 h and 2.52 h and 3.72 h
  Tmax: 4.00 h and 3.00 h and 3.33 h
[4]; [12]
  MRT(0-∞): 6.06 h
  T1/2: 3.09 h
[4]; male Cynomolgus monkeys, PO 50 mg/kg, time point 1
  Plasma Concentration: 192.53 ng/mL and 186.66 ng/mL and 241.02 ng/mL
[4]; male Cynomolgus monkeys, PO 50 mg/kg, time point 1, mean
  Plasma Concentration: 206.74 ng/mL
[5]; 0 min
  Microsomal stability, % remaining: 100.00%
[5]; 5 min
  Microsomal stability, % remaining: 58.19%
[5]; 10 min
  Microsomal stability, % remaining: 40.59%
[5]; 15 min
  Microsomal stability, % remaining: 28.11%
[5]; 30 min
  Microsomal stability, % remaining: 18.61%
[5]; 45 min
  Microsomal stability, % remaining: 18.42%
[5]; 60 min
  Microsomal stability, % remaining: 18.38%
[5]; Table 16, 0 min
  % of compound remaining when incubated in rat liver microsomes: 100%
[5]; Table 16, 4 min
  % of compound remaining when incubated in rat liver microsomes: 76.6%
[5]; Table 16, 6 min
  % of compound remaining when incubated in rat liver microsomes: 64.3%
[5]; Table 16, 10 min
  % of compound remaining when incubated in rat liver microsomes: 57.3%
[5]; Table 16, 15 min
  % of compound remaining when incubated in rat liver microsomes: 51.9%
[5]; Table 16, 30 min
  % of compound remaining when incubated in rat liver microsomes: 49.3%
[5]; Table 17, 0 min
  % of compound remaining when incubated in rat liver microsomes: 100%
[5]; Table 17, 4 min
  % of compound remaining when incubated in rat liver microsomes: 76.6%
[5]; Table 17, 6 min
  % of compound remaining when incubated in rat liver microsomes: 64.3%
[5]; Table 17, 10 min
  % of compound remaining when incubated in rat liver microsomes: 57.3%
[5]; Table 17, 15 min
  % of compound remaining when incubated in rat liver microsomes: 51.9%
[5]; Table 17, 30 min
  % of compound remaining when incubated in rat liver microsomes: 49.3%
[5]; rat liver microsomes
  microsomal stability (in words): metabolized fairly rapidly
[6]; 0 min
  Microsomal stability, % remaining: 100.00%
[6]; 5 min
  Microsomal stability, % remaining: 83.38%
[6]; 10 min
  Microsomal stability, % remaining: 71.22%
[6]; 15 min
  Microsomal stability, % remaining: 71.51%
[6]; 30 min
  Microsomal stability, % remaining: 54.96%
[6]; 45 min
  Microsomal stability, % remaining: 33.81%
[6]; 60 min
  Microsomal stability, % remaining: 32.52%
[6]; dog microsomes
  microsomal stability (in words): metabolized fairly rapidly
SJSA-1 xenograft tumors [7]
  tumor growth inhibition (in words): effective tumor growth inhibition
[8]; 0 min
  Microsomal stability, % remaining: 100.00%
[8]; 5 min
  Microsomal stability, % remaining: 78.76%
[8]; 10 min
  Microsomal stability, % remaining: 58.19%
[8]; 15 min
  Microsomal stability, % remaining: 46.46%
[8]; 30 min
  Microsomal stability, % remaining: 26.46%
[8]; 45 min
  Microsomal stability, % remaining: 20.88%
[8]; 60 min
  Microsomal stability, % remaining: 11.86%
[8]; human liver microsomes
  microsomal stability (in words): metabolized fairly rapidly
